ChEMBL document CHEMBL3046548, “Genetic and biochemical analysis of a laboratory-selected spirodiclofen-resistant strain of Tetranychus urticae Koch (Acari: Tetranychidae)” (2009)
In brackets after ≈: the same amount, converted by molar mass. Where a name gives a salt, the structure may show the parent alone.

Assays:
[1] = tested on: Tetranychus urticae; experiment: Resistance ratio of LC50 for spirodiclofen-resistant Tetranychus urticae SR-VP (two-spotted spider mite) adults to LC50 for spirodiclofen-susceptible Tetranychus urticae LS-VL (two-spotted spider mite) adults; type: functional
[2] = tested on: Tetranychus urticae; experiment: Insecticidal activity against spirodiclofen-resistant Tetranychus urticae SR-VP (two-spotted spider mite) adults in kidney bean leaf disks assessed as mortality measured after 2 days; type: functional; conditions: foliar, 48 h
[3] = tested on: Tetranychus urticae; experiment: Insecticidal activity against spirodiclofen-susceptible Tetranychus urticae LS-VL (two-spotted spider mite) adults in kidney bean leaf disks assessed as mortality after 2 day; type: functional; conditions: foliar, 48 h
[4] = tested on: Tetranychus urticae; experiment: Resistance ratio of LC50 for spirodiclofen-resistant Tetranychus urticae SR-VP (two-spotted spider mite) larvae to LC50 for spirodiclofen-susceptible Tetranychus urticae LS-VL (two-spotted spider mite) larvae; type: functional
[5] = tested on: Tetranychus urticae; experiment: Insecticidal activity against spirodiclofen-resistant Tetranychus urticae SR-VP (two-spotted spider mite) larvae in kidney bean leaf disks assessed as mortality measured after 1 day; type: functional; conditions: foliar, 24 h
[6] = tested on: Tetranychus urticae; experiment: Insecticidal activity against spirodiclofen-susceptible Tetranychus urticae LS-VL (two-spotted spider mite) larvae in kidney bean leaf disks assessed as mortality after 1 day; type: functional; conditions: foliar, 24 h
[7] = tested on: Tetranychus urticae; experiment: Insecticidal activity against spirodiclofen-resistant Tetranychus urticae SR-VP (two-spotted spider mite) eggs in kidney bean leaf disks assessed as mortality measured after 1 day; type: functional
[8] = tested on: Tetranychus urticae; experiment: Insecticidal activity against Tetranychus urticae LS-VL (two-spotted spider mite) larvae […] assessed as mortality treated 3-4 hr after 200 mg/L GSH depleter, DEM application measured after 1 day; type: functional
[9] = tested on: Tetranychus urticae; experiment: Synergism factor, ratio of LC50 for Tetranychus urticae LS-VL (two-spotted spider mite) larvae to LC50 for Tetranychus urticae LS-VL larvae in presence of 200 mg/L GSH depleter, DEM; type: functional
[10] = tested on: Tetranychus urticae; experiment: (§1) Resistance ratio of LC50 for Tetranychus urticae SR-VP (two-spotted spider mite) larvae reared under continuous pressure of 5000 mg/L spirodiclofen for 5 months in presence of 200 mg/L GSH depleter, DEM to LC50 for Tetranychus urticae LS-VL (two-spotted spider mite) larvae in presence of 200 mg/L GSH depleter, DEM; type: functional
[11] = tested on: Tetranychus urticae; experiment: Synergism factor, ratio of LC50 for Tetranychus urticae SR-VP (two-spotted spider mite) larvae to LC50 for Tetranychus urticae SR-VP larvae in presence of 200 mg/L GSH depleter, DEM; type: functional
[12] = tested on: Tetranychus urticae; experiment: Insecticidal activity against Tetranychus urticae SR-VP (two-spotted spider mite) larvae reared under continuous pressure of 5000 mg/L spirodiclofen for 5 months assessed as mortality treated 3-4 hr after 200 mg/L GSH depleter, DEM application measured after 1 day; type: functional
[13] = tested on: Tetranychus urticae; experiment: Insecticidal activity against Tetranychus urticae SR-VP (two-spotted spider mite) larvae reared under continuous pressure of 5000 mg/L spirodiclofen for 5 months assessed as mortality treated 3-4 hr after 200 mg/L cytochrome P450 monooxygenase inhibitor, PBO application measured after 1 day
[14] = tested on: Tetranychus urticae; experiment: Insecticidal activity against Tetranychus urticae LS-VL (two-spotted spider mite) larvae reared under continuous pressure of 5000 mg/L spirodiclofen for 5 months assessed as mortality treated 3-4 hr after 200 mg/L cytochrome P450 monooxygenase inhibitor, PBO application measured after 1 day
[15] = tested on: Tetranychus urticae; experiment: Synergism factor, ratio of LC50 for Tetranychus urticae LS-VL (two-spotted spider mite) larvae to LC50 for Tetranychus urticae LS-VL larva in presence of 10 mg/L esterase inhibitor, DEF; type: functional
[16] = tested on: Tetranychus urticae; experiment: Insecticidal activity against Tetranychus urticae SR-VP (two-spotted spider mite) larvae reared under continuous pressure of 5000 mg/L spirodiclofen for 5 months assessed as mortality treated 3-4 hr after 10 mg/L esterase inhibitor, DEF application measured after 1 day; type: functional
[17] = tested on: Tetranychus urticae; experiment: Insecticidal activity against Tetranychus urticae LS-VL (two-spotted spider mite) larvae […] assessed as mortality treated 3-4 hr after 10 mg/L esterase inhibitor, DEF application measured after 1 day; type: functional
[18] = tested on: Tetranychus urticae; experiment: as §1, with “10” for “200”, “esterase inhibitor, DEF” for “GSH depleter, DEM”; type: functional
[19] = tested on: Tetranychus urticae; experiment: Synergism factor, ratio of LC50 for Tetranychus urticae SR-VP (two-spotted spider mite) larvae to LC50 for Tetranychus urticae SR-VP larva in presence of 10 mg/L esterase inhibitor, DEF; type: functional
[20] = tested on: Tetranychus urticae; experiment: Insecticidal activity against spirodiclofen-resistant Tetranychus urticae SR-VP (two-spotted spider mite) larvae reared under continuous pressure of 5000 mg/L spirodiclofen for 5 months in kidney bean leaf disks assessed as mortality measured after 1 day; type: functional; conditions: foliar, 24 h
[21] = tested on: Tetranychus urticae; experiment: Insecticidal activity against haploid F2 progeny generated from reciprocal cross between female Tetranychus urticae LS-VL (two-spotted spider mite) with male Tetranychus urticae SR-VP in kidney bean leaf disk assessed as mortality; type: functional; conditions: foliar
[22] = tested on: Tetranychus urticae; experiment: Resistance ratio of LC50 for spirodiclofen-resistant Tetranychus urticae SR-VP (two-spotted spider mite) eggs to LC50 for spirodiclofen-susceptible Tetranychus urticae LS-VL (two-spotted spider mite) eggs; type: functional
[23] = tested on: Tetranychus urticae; experiment: Insecticidal activity against diploid F1 progeny generated from reciprocal cross between male Tetranychus urticae LS-VL (two-spotted spider mite) with female Tetranychus urticae SR-VP in kidney bean leaf disk assessed as mortality; type: functional
[24] = tested on: Tetranychus urticae; experiment: Insecticidal activity against spirodiclofen-resistant Tetranychus urticae SR-VP (two-spotted spider mite) larvae maintained on bean plants sprayed with 5000 mg/L spirodiclofen assessed as mortality; type: functional
[25] = tested on: Tetranychus urticae; experiment: Insecticidal activity against haploid F2 progeny generated from reciprocal cross between male Tetranychus urticae LS-VL (two-spotted spider mite) with female Tetranychus urticae SR-VP in kidney bean leaf disk assessed as mortality; type: functional; conditions: foliar
[26] = tested on: Tetranychus urticae; experiment: Insecticidal activity against spirodiclofen-susceptible Tetranychus urticae LS-VL (two-spotted spider mite) eggs in kidney bean leaf disks assessed as mortality after 1 day; type: functional; conditions: foliar, 24 h
[27] = tested on: Tetranychus urticae; experiment: Insecticidal activity against diploid F1 progeny generated from reciprocal cross between female Tetranychus urticae LS-VL (two-spotted spider mite) with male Tetranychus urticae SR-VP in kidney bean leaf disk assessed as mortality; type: functional
[28] = tested on: Tetranychus urticae; experiment: Resistance ratio of LC50 for spirodiclofen-resistant Tetranychus urticae SR-VP (two-spotted spider mite) larvae reared under continuous pressure of 5000 mg/L spirodiclofen for 5 months to LC50 for spirodiclofen-susceptible Tetranychus urticae LS-VL (two-spotted spider mite) larvae; type: functional
[29] = tested on: Tetranychus urticae; experiment: Insecticidal activity against spirodiclofen-resistant Tetranychus urticae SR-VP (two-spotted spider mite) larvae maintained on bean plants sprayed with 5000 mg/L spirodiclofen assessed as mortality measured at 6 months after mite transfer onto unsprayed bean plants; type: functional

CCc1nn(C)c(C(=O)NCc2ccc(C(C)(C)C)cc2)c1Cl [TEBUFENPYRAD]
RatioLC50 [1]: 2.2 | LC50 [2]: 138 µg/mL (≈ 412 µM) | LC50 [3]: 63.5 µg/mL (≈ 190 µM)

Cc1cc(C)c(C2=C(OC(=O)CC(C)(C)C)C3(CCCC3)OC2=O)c(C)c1 [SPIROMESIFEN]
RatioLC50 [4]: 18 | LC50 [5]: 14.5 µg/mL (≈ 39.1 µM) | LC50 [6]: 0.79 µg/mL (≈ 2.13 µM)

CCCCCCCCCCCCC1=C(OC(C)=O)C(=O)c2ccccc2C1=O [ACEQUINOCYL]
RatioLC50 [1]: 3.8 | LC50 [2]: 29.6 µg/mL (≈ 77 µM) | LC90 [7]: 60 µg/mL (≈ 156 µM) | LC50 [3]: 7.7 µg/mL (≈ 20 µM)

CC[C@H](C)[C@H]1O[C@]2(C=C[C@@H]1C)C[C@@H]1C[C@@H](C/C=C(\C)[C@@H](O[C@H]3C[C@H](OC)[C@@H](O[C@H]4C[C@H](OC)[C@@H](O)[C@H](C)O4)[C@H](C)O3)[C@@H](C)/C=C/C=C3\CO[C@@H]4[C@H](O)C(C)=C[C@@H](C(=O)O1)[C@]34O)O2.CO[C@H]1C[C@H](O[C@H]2[C@H](C)O[C@@H](O[C@@H]3/C(C)=C/C[C@@H]4C[C@@H](C[C@]5(C=C[C@H](C)[C@@H](C(C)C)O5)O4)OC(=O)[C@@H]4C=C(C)[C@@H](O)[C@H]5OC/C(=C\C=C\[C@@H]3C)[C@]54O)C[C@@H]2OC)O[C@@H](C)[C@@H]1O [ABAMECTIN]
RatioLC50 [1]: 1.3 | LC50 [2]: 0.52 µg/mL | LC50 [3]: 0.4 µg/mL

CC(C)(C)c1ccc(CSc2cnn(C(C)(C)C)c(=O)c2Cl)cc1 [PYRIDABEN]
RatioLC50 [1]: 0.9 | LC50 [2]: 135 µg/mL (≈ 370 µM) | LC50 [3]: 156 µg/mL (≈ 427 µM)

CCOC(=O)/C=C\C(=O)OCC [DIETHYL MALEATE]
LC50 [8]: 6.9 µg/mL | RatioLC50 [9]: 0.7 | RatioLC50 [10]: 189 | RatioLC50 [11]: 1 | LC50 [12]: 1310 µg/mL

CCOc1cc(C(C)(C)C)ccc1C1COC(c2c(F)cccc2F)=N1 (stereo not drawn) [ETOXAZOLE]
RatioLC50 [4]: 0.8 | LC50 [5]: 0.61 µg/mL (≈ 1.7 µM) | LC50 [6]: 0.76 µg/mL (≈ 2.11 µM)

COc1ccc(-c2ccccc2)cc1NNC(=O)OC(C)C [BIFENAZATE]
RatioLC50 [1]: 2 | LC50 [2]: 2.4 µg/mL (≈ 7.99 µM) | LC50 [3]: 1.2 µg/mL (≈ 4 µM)

CCCCOCCOCCOCc1cc2c(cc1CCC)OCO2 [PIPERONYL BUTOXIDE]
LC50 [13]: 380 µg/mL (≈ 1120 µM) | LC50 [14]: 3.9 µg/mL (≈ 11.5 µM)

CCCCSP(=O)(SCCCC)SCCCC [S,S,S,-TRIBUTYLPHOSPHOROTRITHIOATE]
RatioLC50 [15]: 0.8 | LC50 [16]: 402 µg/mL (≈ 1280 µM) | LC50 [17]: 6.3 µg/mL (≈ 20 µM) | RatioLC50 [18]: 64 | RatioLC50 [19]: 3.3

CCC(C)(C)C(=O)OC1=C(c2ccc(Cl)cc2Cl)C(=O)OC12CCCCC2 [SPIRODICLOFEN]
LC50 [20]: 1340 µg/mL (≈ 3270 µM) | LC50 [21]: 56 µg/mL (≈ 136 µM) | RatioLC50 [22]: 2 | LC90 [23]: 236 µg/mL (≈ 574 µM) | LC50 ([23]; Tetranychus urticae, foliar): 85 µg/mL (≈ 207 µM) | LC50 [24]: 10000 µg/mL (≈ 24300 µM) | LC50 [25]: 44 µg/mL (≈ 107 µM) | LC50 [26]: 8.7 µg/mL (≈ 21.2 µM) | LC90 [27]: 150 µg/mL (≈ 365 µM) | LC50 ([27]; Tetranychus urticae, foliar): 68 µg/mL (≈ 165 µM) | RatioLC50 [28]: 277 | LC50 ([7]; Tetranychus urticae, SR-VP, foliar, 24 h): 17.9 µg/mL (≈ 43.5 µM) | LC50 [29]: 5930 µg/mL (≈ 14400 µM) | LC50 [6]: 4.9 µg/mL (≈ 11.9 µM)
